Assay results published in patent US8618082B2, “Lupeol anti-tumor agent and uses thereof” (Wisconsin Alumni Research Foundation, priority 2004, dated 2013).

How the values were obtained:
[1] = tested on: IKKα protein; experiment: TPA-induced activation of IKKα (western blot); assay type: in vivo, mouse; settings: TPA topical
Description: FIG. 6. Inhibitory effect of Lupeol on TPA-induced activation of IKKα, and phosphorylation and degradation of IκBα in CD-1 mice: At different times after treatment, the animals were sacrificed, epidermal cytosolic was prepared, and protein expression was determined. Equal loading was confirmed by stripping the immunoblot and reprobing it for β-actin. The immunoblots shown here are representative of three independent experiments with similar results. The values above each lane indicate relative density of the band normalized to β-actin.
(§1) The animals were shaved on the dorsal side of the skin, divided into four groups and treated topically on the shaved area with either 0.4 ml vehicle (acetone), or TPA (3.2 nmol/0.4 ml acetone/animal, v/v), or Lupeol (1 or 2 mg/0.2 ml acetone/animal, w/v) followed 30 min later with TPA (3.2 nmol/0.2 ml acetone/animal). […]
Epidermis from the whole skin was separated as described earlier (Katiyar et al., 1999) and was homogenized in ice-cold lysis buffer [50 mM Tris-HCl, 150 mM NaCl, 1 mM EGTA, 1 mM EDTA, 20 mM NaF, 100 mM Na3VO4, 0.5% NP-40, 1% Triton X-100, 1 mM PMSF (pH 7.4)] with freshly added protease inhibitor cocktail, Protease Inhibitor Cocktail Set III (Calbiochem, La Jolla, Calif., USA). […] The protein content in the lysates was measured by DC BioRad assay (BioRad Laboratories, Hercules, Calif.) as per the manufacturer's protocol. […]

[2] = tested on: Akt; experiment: TPA-induced phosphorylation of Akt at Thr308 (western blot); assay type: in vivo, mouse; settings: TPA, 6 h post treatment
Description: (§2) FIG. 5. Inhibitory effect of Lupeol on TPA-induced activation of PI3K and phosphorylation of Akt in CD-1 mice: At different times after treatment, the animals were sacrificed, epidermal protein lysate was prepared, and PI3K and phosphorylated (Thr^308) Akt and total Akt protein expression were determined. The immunoblots shown here are representative of three independent experiments with similar results. The values above each lane indicate relative density of the band normalized to β-actin.
as §1, with “acetone/animal). Animals were sacrificed at different times point i.e. 6, 12, 24 and 48 h post TPA treatment.” for “acetone/animal).”
(§3) Epidermis from the whole skin was separated as described earlier (Katiyar et al., 1999) and was homogenized in ice-cold lysis buffer [50 mM Tris-HCl, 150 mM NaCl, 1 mM EGTA, 1 mM EDTA, 20 mM NaF, 100 mM Na3VO4, 0.5% NP-40, 1% Triton X-100, 1 mM PMSF (pH 7.4)] with freshly added protease inhibitor cocktail, Protease Inhibitor Cocktail Set III (Calbiochem, La Jolla, Calif., USA). […] The protein content in the lysates was measured by DC BioRad assay (BioRad Laboratories, Hercules, Calif.) as per the manufacturer's protocol.
(§4) For western blot analysis, 40 μg of the protein was resolved over 8-12% polyacrylamide gels and transferred to a nitrocellulose membrane. […] This was followed by incubation with anti-mouse or anti-rabbit secondary antibody horse-radish peroxidase (Amersham Life Sciences, Inc., USA) for 1 h and then washed several times and detected by chemiluminescence ECL kit, (Amersham Life Sciences, Inc., USA) and autoradiography using XAR-5 film obtained from Eastman Kodak Co. (Rochester, N.Y., USA). […]

[3] = tested on: CD-1 mouse skin; experiment: TPA-induced cutaneous edema, skin punch weight; assay type: in vivo; settings: TPA alone, 3.2 nmole/mouse topical
Description: Studies from the inventors' laboratory and by other have shown that TPA application to mouse skin results in cutaneous edema (Katiyar et at, 1996; Liang et at, 2002). In the present study, the inventors evaluated the protective effects of topical application of Lupeol in TPA-mediated cutaneous edema in CD-1 mouse. The inventors tested four doses 0.25, 0.5, 1 and 2 mg of Lupeol per animal in the inventors' preliminary studies. […] The CD-1 mice were topically treated with Lupeol (1 and 2 mg/mouse) and 30 min later were topically treated with TPA (3.2 nmole/mouse). […] At least four determinations were made at different dorsal skin sites per mouse in each group. The data represents the mean±SE of eight mice (*p<0.01 vs TPA).
(§5) The animals were shaved on the dorsal side of the skin, divided into four groups and treated topically on the shaved area with either 0.4 ml vehicle (acetone), or TPA (3.2 nmol/0.4 ml acetone/animal, v/v), or Lupeol (1 or 2 mg/0.2 ml acetone/animal, w/v) followed 30 min later with TPA (3.2 nmol/0.2 ml acetone/animal). Animals were sacrificed at different times point i.e. 6, 12, 24 and 48 h post TPA treatment. The epidermis was separated from the whole skin and homogenized in 0.1 M Tris-HCl buffer (pH 7.2) using a Polytron tissue homogenizer (Brinkmann Instruments, Westbury, N.Y., USA) at 100,000×g supernatant, and microsomal fractions were prepared as described earlier (Katiyar and Mukhtar, 1997). The sample of 6 h treatment group was used to assess the ODC activity as this time point has previously been shown for optimal induction of the enzyme (Katiyar er al., 1996).
To assess the inhibitory effect of pre-application of Lupeol on TPA-induced edema, 1 cm-diameter punches of skin from vehicle-, Lupeol-, TPA- or Lupeol- and TPA-treated mice were removed, made free of fat pads, and weighed immediately. After drying for 24 h at 50° C., the skin punches were reweighed, and the loss of water content was determined. The difference in the amount of water gain between the control (vehicle treated) and TPA treated represented the extent of edema induced by TPA, whereas that between the control vehicle and Lupeol plus TPA represented the inhibitory effect of Lupeol. For the hyperplasia study, skin was removed, fixed in 10% formalin, and embedded in paraffin. Vertical sections (5 μm) were cut, mounted on a glass slide, and stained with hematoxylin and eosin.

[4] = tested on: epidermal COX-2 protein; experiment: TPA-induced epidermal COX-2 protein expression (western blot); assay type: in vivo, mouse; settings: TPA topical, 6 h post treatment
Description: (§6) FIG. 4. Inhibitory effect of Lupeol on TPA-induced epidermal ODC, iNOS and COX-2 protein expression in CD-1 mice: At different times after treatment, the animals were sacrificed, epidermal protein lysate was prepared, and ODC and COX-2 protein expression were determined. Equal loading of protein was confirmed by stripping the immunoblot and reprobing it for β-actin. The immunoblots shown here are representative of three independent experiments with similar results. The values above each lane indicate relative density of the band normalized to β-actin.
as §5
(§7) Epidermis from the whole skin was separated as described earlier (Katiyar et al., 1999) and was homogenized in ice-cold lysis buffer [50 mM Tris-HCl, 150 mM NaCl, 1 mM EGTA, 1 mM EDTA, 20 mM NaF, 100 mM Na3VO4, 0.5% NP-40, 1% Triton X-100, 1 mM PMSF (pH 7.4)] with freshly added protease inhibitor cocktail, Protease Inhibitor Cocktail Set III (Calbiochem, La Jolla, Calif., USA). The homogenate was then centrifuged at 14,000×g for 25 minutes at 4° C. and the supernatant (total cell lysate) was collected, aliquoted and stored at −80° C. For the preparation of nuclear lysate, 0.2 g of the epidermis was homogenized in 1 ml of ice-cold phosphate-buffered saline (pH 7.6) and centrifuged at 12,000×g for 5 min at 4° C. […] The protein content in the lysates was measured by DC BioRad assay (BioRad Laboratories, Hercules, Calif.) as per the manufacturer's protocol.
as §4

[5] = tested on: epidermal iNOS protein; experiment: TPA-induced epidermal iNOS protein expression (western blot); assay type: in vivo, mouse; settings: TPA alone topical
Description: as §6
as §1, with “acetone/animal). Animals were sacrificed at different times point i.e. 6, 12, 24 and 48 h post TPA treatment.” for “acetone/animal).”
as §3, §4

[6] = tested on: epidermal ODC protein; experiment: TPA-induced epidermal ODC protein expression (western blot); assay type: in vivo, mouse; settings: TPA topical
Description: as §6
as §1, with “acetone/animal). Animals were sacrificed at different times point i.e. 6, 12, 24 and 48 h post TPA treatment.” for “acetone/animal).”
as §3, §4

[7] = tested on: catalytic (p110) and regulatory (p85) subunit of PI3K; experiment: TPA-induced epidermal PI3K expression (western blot); assay type: in vivo, mouse
Description: as §2, §5, §7, §4

With CCCCCCCCCCCCCC(=O)O[C@@H]1[C@@H](C)[C@@]2(O)[C@@H](C=C(CO)C[C@]3(O)C(=O)C(C)=C[C@@H]23)[C@@H]2C(C)(C)[C@]12OC(C)=O [TPA, 12-O-tetradecanoyl-phorbol acetate, reference compound] the “increase in the expression of IKKα protein” value [1] was 5.5 fold, the “maximum phosphorylation of Akt” value [2] was 3.8 fold and the “Skin punch weight 24 hrs” value [3] was 23.5 ± 0.5 mg/cm2. For the same molecule, the “Skin punch weight 48 hrs” value [3] was 25.5 ± 0.75 mg/cm2, the “maximum increase in epidermal COX-2 protein expression vs acetone control” value [4] was 2.7 fold and the “increase in iNOS protein expression vs vehicle treated controls” value [5] was 5 fold. The “increase in epidermal ODC protein level vs acetone treated control” value [6] was 4 fold, the “increase in expression of catalytic (p110) and regulatory (p85) subunit of PI3K” value ([7]; TPA topical) was 2 to 3 fold and the “induction in the expression of catalytic subunit p110” value ([7]; TPA, 6 h post treatment) was 3 fold.
